Paper PMC6290913 (Journal of medicinal chemistry, 2018)

Tests used:
[1] = target: Mouse uPA (active mouse urokinase, HMW) (Mus musculus, UniProt P06869)
uPA = uPA (Homo sapiens, UniProt P00749); assay: EnPlex activity-based protein profiling, uPA; details: 33.3 μM to 10 nM; semiquantitative
85 serine hydrolases = details: 33.3 μM to 10 nM; semiquantitative
[2] = target: human ENaCs (α, β, and γ subunits) (Homo sapiens, UniProt P37088+P51168+P51170); assay: ENaC inhibition assay; type: cell-based; details: 10 μM compound; transfected HEK-293 cells
Trypsin = assay: Chromogenic TLSP activity assay, trypsin; type: biochemical; details: read-out: Trypsin IC50; chromogenic enzyme inhibition assay
[3] = target: low molecular weight human uPA (Homo sapiens, UniProt P00749); assay: Fluorometric uPA activity assay; type: biochemical; details: relative to HMA 5
[4] = test system: AsPC-1 human pancreatic cancer cells + human pancreatic stellate cells; assay: Orthotopic xenograft mouse model of pancreatic cancer; details: for liver metastases: 18 or 26 10 mg/kg ip daily for 28 days, compared to gemcitabine

Mouse uPA (active mouse urokinase, HMW), sequence (P06869 180-433 limits assumed): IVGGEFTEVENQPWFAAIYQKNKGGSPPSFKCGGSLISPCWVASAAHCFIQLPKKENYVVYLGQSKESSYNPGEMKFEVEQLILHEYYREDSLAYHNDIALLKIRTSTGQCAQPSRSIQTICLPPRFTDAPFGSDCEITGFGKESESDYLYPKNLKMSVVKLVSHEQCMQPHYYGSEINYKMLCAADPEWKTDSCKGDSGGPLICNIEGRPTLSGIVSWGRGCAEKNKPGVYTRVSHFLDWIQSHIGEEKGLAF
Mouse uPA (active mouse urokinase, HMW), sequence (P06869 21-178 partner limits assumed): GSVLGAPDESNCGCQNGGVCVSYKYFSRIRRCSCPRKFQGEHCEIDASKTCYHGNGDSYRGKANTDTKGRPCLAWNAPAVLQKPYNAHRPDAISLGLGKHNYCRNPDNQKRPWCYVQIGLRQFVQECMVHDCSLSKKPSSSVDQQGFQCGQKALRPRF
human ENaCs (α, β, and γ subunits), sequence (P51170 whole entry): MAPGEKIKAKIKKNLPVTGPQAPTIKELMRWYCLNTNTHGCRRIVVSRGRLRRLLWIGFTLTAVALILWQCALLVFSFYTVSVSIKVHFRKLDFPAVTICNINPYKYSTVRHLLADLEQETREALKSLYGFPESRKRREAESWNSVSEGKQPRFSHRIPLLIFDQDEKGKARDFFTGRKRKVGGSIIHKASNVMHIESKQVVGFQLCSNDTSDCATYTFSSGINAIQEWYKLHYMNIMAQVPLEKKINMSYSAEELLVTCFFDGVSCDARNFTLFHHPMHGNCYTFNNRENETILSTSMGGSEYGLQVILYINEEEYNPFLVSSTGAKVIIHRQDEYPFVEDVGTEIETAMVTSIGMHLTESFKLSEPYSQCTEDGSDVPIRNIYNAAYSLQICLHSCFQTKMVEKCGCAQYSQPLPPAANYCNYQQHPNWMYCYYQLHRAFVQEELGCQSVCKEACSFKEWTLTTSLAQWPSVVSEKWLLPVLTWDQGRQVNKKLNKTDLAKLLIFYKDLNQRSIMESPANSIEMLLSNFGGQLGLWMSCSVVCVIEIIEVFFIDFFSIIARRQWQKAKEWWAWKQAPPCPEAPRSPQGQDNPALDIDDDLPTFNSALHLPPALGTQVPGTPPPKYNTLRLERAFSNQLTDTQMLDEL
human ENaCs (α, β, and γ subunits), sequence (P37088 whole entry): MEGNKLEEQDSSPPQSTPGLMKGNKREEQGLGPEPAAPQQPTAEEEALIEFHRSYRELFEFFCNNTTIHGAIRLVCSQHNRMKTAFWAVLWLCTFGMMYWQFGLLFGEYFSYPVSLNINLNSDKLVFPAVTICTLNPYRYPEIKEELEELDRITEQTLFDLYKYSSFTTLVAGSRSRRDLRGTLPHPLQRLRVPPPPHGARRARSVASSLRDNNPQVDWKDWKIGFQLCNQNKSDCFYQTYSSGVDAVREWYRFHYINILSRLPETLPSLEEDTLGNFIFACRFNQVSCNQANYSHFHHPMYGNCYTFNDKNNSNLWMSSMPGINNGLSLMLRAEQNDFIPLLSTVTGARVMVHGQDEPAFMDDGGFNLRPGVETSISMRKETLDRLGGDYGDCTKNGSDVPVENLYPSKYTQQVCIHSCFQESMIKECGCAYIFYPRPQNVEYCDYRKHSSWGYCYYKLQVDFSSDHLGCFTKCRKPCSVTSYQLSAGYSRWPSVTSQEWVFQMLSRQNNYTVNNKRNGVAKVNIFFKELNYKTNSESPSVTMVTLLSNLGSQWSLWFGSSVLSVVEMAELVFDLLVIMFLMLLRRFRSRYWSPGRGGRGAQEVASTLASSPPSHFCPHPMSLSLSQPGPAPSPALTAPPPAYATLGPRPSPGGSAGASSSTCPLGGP
human ENaCs (α, β, and γ subunits), sequence (P51168 whole entry): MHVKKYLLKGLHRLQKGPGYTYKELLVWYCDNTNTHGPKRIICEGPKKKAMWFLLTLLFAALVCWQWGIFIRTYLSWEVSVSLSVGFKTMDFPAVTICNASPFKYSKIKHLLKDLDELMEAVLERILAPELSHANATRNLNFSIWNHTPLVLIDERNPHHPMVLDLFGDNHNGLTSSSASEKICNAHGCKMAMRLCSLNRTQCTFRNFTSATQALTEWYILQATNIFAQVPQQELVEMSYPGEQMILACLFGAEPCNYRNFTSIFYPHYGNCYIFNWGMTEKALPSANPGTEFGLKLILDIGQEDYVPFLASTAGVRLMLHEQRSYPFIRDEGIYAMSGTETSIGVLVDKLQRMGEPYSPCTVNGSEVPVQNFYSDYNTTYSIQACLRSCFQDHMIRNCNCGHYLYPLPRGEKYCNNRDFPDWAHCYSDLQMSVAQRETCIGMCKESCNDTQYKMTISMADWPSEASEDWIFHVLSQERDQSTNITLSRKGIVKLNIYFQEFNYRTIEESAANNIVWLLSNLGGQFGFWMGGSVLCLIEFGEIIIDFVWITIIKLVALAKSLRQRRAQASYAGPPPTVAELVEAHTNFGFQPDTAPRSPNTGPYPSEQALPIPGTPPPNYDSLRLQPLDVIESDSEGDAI

Row | Structure (SMILES) | decrease in affinity for mouse uPA versus human uPA [1] | serine hydrolases inhibited in EnPlex screen (85 serine hydrolases) | increase in uPA potency relative to HMA [3] | further results
1 | N=C(N)NC(=O)c1nc(Cl)c(N2CCCCCC2)nc1N [Compound 5, 5-N,N-(hexamethylene)amiloride, reference compound] | ~7 fold | activity against the highly homologous S28 protease family members dipeptidyl peptidase 2 (DPP7) and prolylcarboxypeptidase (PRCP) | – | inhibitory activity against uPA in EnPlex screen (uPA): not observed; inhibition of ENaC [2]: greatly reduced activity; IC50 (Trypsin): > 10 µM
2 | N=C(N)NC(=O)c1nc(-c2ccccc2)c(N2CCCCCC2)nc1N [Compound 9] | – | – | – | decrease in uPA potency relative to HMA [3]: ~ 3.7 fold
3 | N=C(N)NC(=O)c1nc(-c2cncc3ccccc23)c(N2CCCCCC2)nc1N [Compound 13, 3-Amino-5-(azepan-1-yl)-N-carbamimidoyl-6-(isoquinolin-4-yl)pyrazine-2-carboxamide] | – | – | – | decrease in uPA potency relative to HMA [3]: ~3 fold
4 | Cn1cc(-c2nc(C(=O)NC(=N)N)c(N)nc2N2CCCCCC2)cn1 [Compound 14, 3-Amino-5-(azepan-1-yl)-N-carbamimidoyl-6-(1-methyl-1H-pyrazol-4-yl)pyrazine-2-carboxamide] | – | – | ~ 2.7 fold | –
5 | N=C(N)NC(=O)c1nc(-c2cc3ccccc3o2)c(N2CCCCCC2)nc1N [Compound 18, 3-Amino-5-(azepan-1-yl)-6-(benzofuran-2-yl)-N-carbamimidoylpyrazine-2-carboxamide] | 10- to 30 fold | inhibiting plasma kallikrein (KLKb1) and trypsin | – | liver metastases [4]: reduced; IC50 (Trypsin): > 10 µM
6 | N=C(N)NC(=O)c1nc(-c2ccco2)c(N2CCCCCC2)nc1N [Compound 22, 3-Amino-5-(azepan-1-yl)-N-carbamimidoyl-6-(furan-2-yl)-pyrazine-2-carboxamide] | – | – | ~ 8.7 fold | –
7 | N=C(N)NC(=O)c1nc(-c2cncnc2)c(N2CCCCCC2)nc1N [Compound 25, 3-Amino-5-(azepan-1-yl)-N-carbamimidoyl-6-(pyrimidin-5-yl)pyrazine-2-carboxamide] | – | slight inhibition of trypsin being the only off-target TLSP activity observed | ~ 12.6 fold | –
8 | COc1ncc(-c2nc(C(=O)NC(=N)N)c(N)nc2N2CCCCCC2)cn1 [Compound 26, 3-Amino-5-(azepan-1-yl)-N-carbamimidoyl-6-(2-methoxypyrimidin-5-yl)pyrazine-2-carboxamide] | 10- to 30 fold | slight activity against C1s, plasma kallikrein, plasmin, prolylcarboxy peptidase, trypsin, and transmembrane protease serine 11D (TMPRSS11d) | – | liver metastases [4]: no macroscopic metastatic lesions observed
9 | Nc1ccn([C@@H]2O[C@H](CO)[C@@H](O)C2(F)F)c(=O)n1 [gemcitabine, reference compound] | – | – | – | effect on end point primary tumor volume ([4]; gemcitabine 75 mg/kg po twice weekly, 18 or 26 10 mg/kg ip daily, 28 days): only modest inhibitory effects
